Assay results taken from patent US20070128217A1 (priority 2003, published 2007).

Columns and labels:
[1] = tested on: antibodies in sera from SARS patients (sera 1a, 1b, 2, 6, 37, 62, London, SARS-yellow, SARS-green); type: binding, human; design: Binding of serum 6 to linear peptides of protein X1 of SARS-CoV Urbani / Binding of serum 37 to linear peptides of protein X1 of SARS-CoV Urbani / Binding of serum 6 to looped/cyclic peptide (PEPSCAN-ELISA) / Binding of serum 37 to looped/cyclic peptide (PEPSCAN-ELISA) / Binding of serum 37 to looped/cyclic peptides of protein X1 of SARS-CoV Urbani / Binding of serum 6 to linear peptides of protein X2 / Binding of serum 37 to linear peptides of protein X2 / Binding of serum 37 to looped/cyclic peptides of protein X2 of SARS-CoV Urbani / Binding of serum 6 to linear peptides of protein M of SARS-CoV Urbani / Binding of serum 37 to linear peptides of protein M of SARS-CoV Urbani / Binding of serum 6 to looped/cyclic peptides of protein M of SARS-CoV Urbani / Binding of serum 37 to looped/cyclic peptides of protein M of SARS-CoV Urbani / Binding of serum 6 to linear peptides of protein X3 of SARS-CoV Urbani / Binding of serum 37 to linear peptides of protein X3 of SARS-CoV Urbani / Binding of serum 37 to looped/cyclic peptides of protein X3 of SARS-CoV Urbani / Binding of serum 6 to linear peptides of protein X4 of SARS-CoV Urbani / Binding of serum 37 to linear peptides of protein X4 of SARS-CoV Urbani / Binding of serum 37 to looped/cyclic peptides of protein X4 of SARS-CoV Urbani / Binding of serum 6 to linear peptides of protein X5 of SARS-CoV Urbani / Binding of serum 37 to linear peptides of protein X5 of SARS-CoV Urbani / Binding of serum 37 to looped/cyclic peptides of protein X5 of SARS-CoV Urbani / Binding of serum 6 to linear peptides of protein N of SARS-CoV Urbani / Binding of serum 37 to linear peptides of protein N of SARS-CoV Urbani / Binding of serum 6 to linear peptide (PEPSCAN-ELISA) / Binding of serum 1a to looped/cyclic peptides of protein N of SARS-CoV Urbani / Binding of serum 1b to looped/cyclic peptides of protein N of SARS-CoV Urbani / Binding of serum 2 to looped/cyclic peptides of protein N of SARS-CoV Urbani / Binding of serum 6 to looped/cyclic peptides of protein N of SARS-CoV Urbani / Binding of serum 37 to looped/cyclic peptides of protein N of SARS-CoV Urbani / Binding of serum 62 to looped/cyclic peptides of protein N of SARS-CoV Urbani / Binding of serum London to looped/cyclic peptides of protein N of SARS-CoV Urbani / Binding of serum SARS-green to looped/cyclic peptides of protein N of SARS-CoV Urbani: unit not given here
[2] = tested on: rabbit serum obtained by immunizing a rabbit with the SARS-CoV strain Frankfurt 1; type: binding; design: Binding of a rabbit serum to linear peptides / Binding of a rabbit serum to looped peptides / Rabbit serum linear peptides / Rabbit serum looped peptides / Binding of a rabbit serum to linear peptides of protein N of SARS-CoV Urbani (Rabbit serum linear peptides) / Binding of a rabbit serum to looped/cyclic peptides of protein N of SARS-CoV Urbani (Rabbit serum looped peptides): unit not given here
[3] = tested on: control sera (pooled serum of ten healthy LUMC hospital workers; commercial negative donor pooled serum from the Dutch bloodbank); type: binding, human; design: Binding of Control serum LUMC to linear peptides / Binding of Control serum Blood-bank to linear peptides / Binding of Control serum LUMC to looped peptides / Binding of Control Serum Blood-Bank to Looped peptides / Binding of Control serum LUMC to linear peptides of the protein M of SARS-CoV Urbani / Binding of Control serum Blood-bank to linear peptides of the protein M of SARS-CoV Urbani / Binding of Control serum LUMC to looped peptides of the protein M of SARS-CoV Urbani / Binding of Control Serum Blood-Bank to Looped peptides of the protein M of SARS-CoV Urbani: unit not given here

WLLWPVTLACFVLAA
Binding of serum 1a to linear peptides of protein M of SARS-CoV Urbani [1]: 0.6 | Binding of serum 1a to looped/cyclic peptides of protein M of SARS-CoV Urbani [1]: 0.7 | Binding of serum 1b to linear peptides of protein M of SARS-CoV Urbani [1]: 0.5 | Binding of serum 1b to looped/cyclic peptides of protein M of SARS-CoV Urbani [1]: 0.3 | Binding of serum 2 to linear peptides of protein M of SARS-CoV Urbani [1]: 0.5 | Binding of serum 2 to looped/cyclic peptides of protein M of SARS-CoV Urbani [1]: 0.7 | Binding of serum 6 to linear peptides of protein M of SARS-CoV Urbani [1]: 0.4 | Binding of serum 6 to looped/cyclic peptides of protein M of SARS-CoV Urbani [1]: 0.5 | Binding of serum 37 to linear peptides of protein M of SARS-CoV Urbani [1]: 0.6 | Binding of serum 37 to looped/cyclic peptides of protein M of SARS-CoV Urbani [1]: 0.7 | Binding of serum 62 to linear peptides of protein M of SARS-CoV Urbani [1]: 0.6 | Binding of serum 62 to looped/cyclic peptides of protein M of SARS-CoV Urbani [1]: 0.7 | Binding of serum London to linear peptides of protein M of SARS-CoV Urbani [1]: 0.3 | Binding of serum London to looped/cyclic peptides of protein M of SARS-CoV Urbani [1]: 0.2 | Binding of serum SARS-green to linear peptides of protein M of SARS-CoV Urbani [1]: 0.3 | Binding of serum SARS-green to looped/cyclic peptides of protein M of SARS-CoV Urbani [1]: 0.3 | Binding of serum SARS-yellow to linear peptides of protein M of SARS-CoV Urbani [1]: 0.0 | Binding of serum SARS-yellow to looped/cyclic peptides of protein M of SARS-CoV Urbani [1]: 0.7 | Rabbit serum linear peptides [2]: 0.3 | Rabbit serum looped peptides [2]: 0.3 | Binding of Control Serum Blood-Bank to Looped peptides of the protein M of SARS-CoV Urbani [3]: 0.5 | Binding of Control serum Blood-bank to linear peptides of the protein M of SARS-CoV Urbani [3]: 0.4 | Binding of Control serum LUMC to linear peptides of the protein M of SARS-CoV Urbani [3]: 0.2 | Binding of Control serum LUMC to looped peptides of the protein M of SARS-CoV Urbani [3]: 0.6

WLSYFVASFRLFART
Binding of serum 1a to linear peptides of protein M of SARS-CoV Urbani [1]: 0.6 | Binding of serum 1b to linear peptides of protein M of SARS-CoV Urbani [1]: 0.5 | Binding of serum 2 to linear peptides of protein M of SARS-CoV Urbani [1]: 0.4 | Binding of serum 6 to linear peptides of protein M of SARS-CoV Urbani [1]: 0.4 | Binding of serum 37 to linear peptides of protein M of SARS-CoV Urbani [1]: 0.4 | Binding of serum 62 to linear peptides of protein M of SARS-CoV Urbani [1]: 0.4 | Binding of serum London to linear peptides of protein M of SARS-CoV Urbani [1]: 0.3 | Binding of serum SARS-green to linear peptides of protein M of SARS-CoV Urbani [1]: 0.4 | Binding of serum SARS-yellow to linear peptides of protein M of SARS-CoV Urbani [1]: 0.1 | Recognition of the peptide by sera of SARS-CoV infected individuals, and form (linear, looped/cyclic) in which it is recognized [1]: recognized in looped/cyclic form | Rabbit serum linear peptides [2]: 0.2 | Rabbit serum looped peptides [2]: 0.4 | Binding of Control Serum Blood-Bank to Looped peptides of the protein M of SARS-CoV Urbani [3]: 0.6 | Binding of Control serum Blood-bank to linear peptides of the protein M of SARS-CoV Urbani [3]: 0.7 | Binding of Control serum LUMC to linear peptides of the protein M of SARS-CoV Urbani [3]: 0.6 | Binding of Control serum LUMC to looped peptides of the protein M of SARS-CoV Urbani [3]: 0.8

WNLDVIISSIVRQLF
Binding of serum 1a to linear peptides of protein X3 of SARS-CoV Urbani [1]: 0.7 | Binding of serum 1a to looped/cyclic peptides of protein X3 of SARS-CoV Urbani [1]: 0.5 | Binding of serum 1b to linear peptides of protein X3 of SARS-CoV Urbani [1]: 0.2 | Binding of serum 1b to looped/cyclic peptides of protein X3 of SARS-CoV Urbani [1]: 0.3 | Binding of serum 2 to linear peptides of protein X3 of SARS-CoV Urbani [1]: 0.4 | Binding of serum 2 to looped/cyclic peptides of protein X3 of SARS-CoV Urbani [1]: 0.4 | Binding of serum 6 to linear peptides of protein X3 of SARS-CoV Urbani [1]: 0.4 | Binding of serum 6 to looped/cyclic peptides of protein X3 of SARS-CoV Urbani [1]: 0.4 | Binding of serum 37 to linear peptides of protein X3 of SARS-CoV Urbani [1]: 0.6 | Binding of serum 37 to looped/cyclic peptides of protein X3 of SARS-CoV Urbani [1]: 0.4 | Binding of serum 62 to linear peptides of protein X3 of SARS-CoV Urbani [1]: 0.6 | Binding of serum 62 to looped/cyclic peptides of protein X3 of SARS-CoV Urbani [1]: 0.4 | Binding of serum London to linear peptides of protein X3 of SARS-CoV Urbani [1]: 0.5 | Binding of serum London to looped/cyclic peptides of protein X3 of SARS-CoV Urbani [1]: 0.2 | Binding of serum SARS-green to linear peptides of protein X3 of SARS-CoV Urbani [1]: 0.2 | Binding of serum SARS-green to looped/cyclic peptides of protein X3 of SARS-CoV Urbani [1]: 0.2 | Binding of serum SARS-yellow to linear peptides of protein X3 of SARS-CoV Urbani [1]: 0.2 | Binding of serum SARS-yellow to looped/cyclic peptides of protein X3 of SARS-CoV Urbani [1]: 0.5 | Rabbit serum linear peptides [2]: 0.1 | Rabbit serum looped peptides [2]: 0.2 | Binding of Control Serum Blood-Bank to Looped peptides of the protein X3 of SARS-CoV Urbani [3]: 0.8 | Binding of Control serum Blood-bank to linear peptides of the protein X3 of SARS-CoV Urbani [3]: 0.6 | Binding of Control serum LUMC to linear peptides of the protein X3 of SARS-CoV Urbani [3]: 0.3 | Binding of Control serum LUMC to looped peptides of the protein X3 of SARS-CoV Urbani [3]: 0.7
